Assays:
Test in all cases: cells
Conditions in all cases: Homo sapiens
NCI-H446 = type: functional, cell-based;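 further: growth inhibition of NCI-H446 cells determined by a cell viability assay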
Description: SANGER: Inhibition of human NCI-H446 cell growth in a cell viability assay.

AGS = type: functional, cell-based;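 further: growth inhibition of AGS cells, determined with a cell viability assay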
Description: SANGER: Inhibition of human AGS cell growth in a cell viability assay.

RS4-11 = type: functional, cell-based;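 further: growth inhibition of RS4-11 cells, read out by a cell viability assay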
Description: SANGER: Inhibition of human RS4-11 cell growth in a cell viability assay.

EW-3 = type: functional, cell-based;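 further: cell viability assay read-out, IC50 reflects inhibition of growth of the EW-3 cells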
Description: SANGER: Inhibition of human EW-3 cell growth in a cell viability assay.

MKN-1 = type: functional, cell-based;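 further: growth inhibition of human MKN1 cells, read out by a cell viability measurement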
Description: SANGER: Inhibition of human MKN1 cell growth in a cell viability assay.

ATN-1 = type: functional, cell-based;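 further: growth inhibition of human ATN-1 cells, read out with a cell viability assay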
Description: SANGER: Inhibition of human ATN-1 cell growth in a cell viability assay.

LU-139 = type: functional, cell-based
Description: SANGER: Inhibition of human LU-139 cell growth in a cell viability assay.

FTC-133 = type: functional, cell-based
A498 = type: functional, cell-based;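 further: growth inhibition of human A498 cells, read out with a cell viability assay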
Description: SANGER: Inhibition of human A498 cell growth in a cell viability assay.

NB5 = type: functional, cell-based;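 further: growth inhibition of NB5 cells, read out as cell viability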
Description: SANGER: Inhibition of human NB5 cell growth in a cell viability assay.

EW-24 = type: functional, cell-based;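 further: human EW-24 cancer cell line, growth inhibition read out via a cell viability assay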
Description: SANGER: Inhibition of human EW-24 cell growth in a cell viability assay.

SK-OV-3 = type: functional, cell-based;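 further: growth inhibition of SK-OV-3 human cells, read out with a cell viability assay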
Description: SANGER: Inhibition of human SK-OV-3 cell growth in a cell viability assay.

MN-60 = type: functional, cell-based;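 further: growth inhibition of the MN-60 cell line, determined with a cell viability assay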
Description: SANGER: Inhibition of human MN-60 cell growth in a cell viability assay.

SNU-5 = type: functional, cell-based;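 further: cell viability readout used to measure growth inhibition in human NCI-SNU-5 cells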
Description: SANGER: Inhibition of human NCI-SNU-5 cell growth in a cell viability assay.

ML-2 = type: functional, cell-based;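 further: growth inhibition of ML-2 cells, measured with a cell viability readout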
Description: SANGER: Inhibition of human ML-2 cell growth in a cell viability assay.

DU-4475 = type: functional, cell-based
Description: SANGER: Inhibition of human DU-4475 cell growth in a cell viability assay.

BFTC-909 = type: functional, cell-based
Description: SANGER: Inhibition of human BFTC-909 cell growth in a cell viability assay.

KYSE-150 cell line = type: functional, cell-based;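 further: growth inhibition of human KYSE-150 cells, read out with a cell viability assay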
Description: SANGER: Inhibition of human KYSE-150 cell growth in a cell viability assay.

MPP-89 = type: functional, cell-based;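 further: growth inhibition of human MPP-89 cells, read out with a cell viability assay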
Description: SANGER: Inhibition of human MPP-89 cell growth in a cell viability assay.

SW 954 = type: functional, cell-based;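 further: growth inhibition of SW954 human cancer cells, read out as cell viability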
Description: SANGER: Inhibition of human SW954 cell growth in a cell viability assay.

no-10 = type: functional, cell-based;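 further: growth inhibition of no-10 cells, read out with a cell viability assay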
Description: SANGER: Inhibition of human no-10 cell growth in a cell viability assay.

HEL = type: functional, cell-based;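 further: growth inhibition of HEL cells, read out with a cell viability assay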
Description: SANGER: Inhibition of human HEL cell growth in a cell viability assay.

ETK-1 = type: functional, cell-based;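 further: growth inhibition of human ETK-1 cells, read out with a cell viability assay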
Description: SANGER: Inhibition of human ETK-1 cell growth in a cell viability assay.

no-11 = type: functional, cell-based;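 further: growth inhibition of human NO-11 cells, read out with a cell viability assay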
Description: SANGER: Inhibition of human no-11 cell growth in a cell viability assay.

BB49-HNC = type: functional, cell-based;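 further: cell viability assay read-out, reported as inhibition of BB49-HNC cell growth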
Description: SANGER: Inhibition of human BB49-HNC cell growth in a cell viability assay.

ES6 = type: functional, cell-based;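 further: growth inhibition of human ES6 cells, read out with a cell viability assay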
Description: SANGER: Inhibition of human ES6 cell growth in a cell viability assay.

COLO-824 = type: functional, cell-based
Description: SANGER: Inhibition of human COLO-824 cell growth in a cell viability assay.

LB373-MEL-D = type: functional, cell-based;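 further: growth inhibition of the cell line, read out in a cell viability assay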
Description: SANGER: Inhibition of human LB373-MEL-D cell growth in a cell viability assay.

BT-474 = type: functional, cell-based
Description: SANGER: Inhibition of human BT-474 cell growth in a cell viability assay.

CCRF-CEM = type: functional, cell-based;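 further: inhibition of CCRF-CEM cell growth, measured by a cell viability assay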
Description: SANGER: Inhibition of human CCRF-CEM cell growth in a cell viability assay.

EB-3 = type: functional, cell-based;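 further: human EB-3 cells, growth inhibition read out via a cell viability assay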
Description: SANGER: Inhibition of human EB-3 cell growth in a cell viability assay.

ES4 = type: functional, cell-based;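 further: growth inhibition of human ES4 cells, read out by a cell viability assay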
Description: SANGER: Inhibition of human ES4 cell growth in a cell viability assay.

KE-37 = type: functional, cell-based;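 further: growth inhibition of KE-37 cells, read out with a cell viability assay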
Description: SANGER: Inhibition of human KE-37 cell growth in a cell viability assay.

NCI-H1299 = type: functional, cell-based;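 further: growth inhibition of human NCI-H1299 cells, read out by a cell viability assay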
Description: SANGER: Inhibition of human NCI-H1299 cell growth in a cell viability assay.

OMC-1 = type: functional, cell-based;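 further: growth inhibition of the OMC-1 cell line, measured by a cell viability assay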
Description: SANGER: Inhibition of human OMC-1 cell growth in a cell viability assay.

MZ1-PC = type: functional, cell-based;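 further: cell viability assay measuring growth inhibition of human MZ1-PC cells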
Description: SANGER: Inhibition of human MZ1-PC cell growth in a cell viability assay.

HCE-T = type: functional, cell-based;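 further: cell viability assay read-out, reporting inhibition of HCE-T cell growth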
Description: SANGER: Inhibition of human HCE-T cell growth in a cell viability assay.

LS-123 = type: functional, cell-based
Description: SANGER: Inhibition of human LS-123 cell growth in a cell viability assay.

VA-ES-BJ = type: functional, cell-based;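 further: growth inhibition of the VA-ES-BJ cell line, read out by a cell viability assay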
Description: SANGER: Inhibition of human VA-ES-BJ cell growth in a cell viability assay.

SK-MEL-1 = type: functional, cell-based;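 further: growth inhibition of human SK-MEL-1 cells, read out by a cell viability assay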
Description: SANGER: Inhibition of human SK-MEL-1 cell growth in a cell viability assay.

OCI-AML2 = type: functional, cell-based;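 further: growth inhibition of OCI-AML2 cells, read out with a cell viability assay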
Description: SANGER: Inhibition of human OCI-AML2 cell growth in a cell viability assay.

EW-11 = type: functional, cell-based;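 further: growth inhibition of human EW-11 cells, measured with a cell viability assay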
Description: SANGER: Inhibition of human EW-11 cell growth in a cell viability assay.

HT1197 = type: functional, cell-based, HT-1197
Description: SANGER: Inhibition of human HT-1197 cell growth in a cell viability assay.

C2BBe1 = type: functional, cell-based;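 further: growth inhibition of C2BBe1 cells, read out through a viability assay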
Description: SANGER: Inhibition of human C2BBe1 cell growth in a cell viability assay.

LNCaP-Clone-FGC = type: functional, cell-based
Description: SANGER: Inhibition of human LNCaP-Clone-FGC cell growth in a cell viability assay.

LS-513 = type: functional, cell-based
Description: SANGER: Inhibition of human LS-513 cell growth in a cell viability assay.

NOMO-1 = type: functional, cell-based;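 further: growth inhibition of human NOMO-1 cells measured by a cell viability assay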
Description: SANGER: Inhibition of human NOMO-1 cell growth in a cell viability assay.

NCI-H1648 = type: functional, cell-based;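 further: cell viability assay measuring inhibition of NCI-H1648 cell growth, from the Sanger screening data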
Description: SANGER: Inhibition of human NCI-H1648 cell growth in a cell viability assay.

DMS-79 = type: functional, cell-based;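 further: growth inhibition measured with a cell viability assay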
Description: SANGER: Inhibition of human DMS-79 cell growth in a cell viability assay.

MIA PaCa-2 = type: functional, cell-based;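 further: growth inhibition of MIA PaCa-2 cells, read out with a cell viability assay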
Description: SANGER: Inhibition of human MIA-PaCa-2 cell growth in a cell viability assay.

EC-GI-10 = type: functional, cell-based
Description: SANGER: Inhibition of human EC-GI-10 cell growth in a cell viability assay.

NCI-H1304 = type: functional, cell-based;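 further: growth inhibition of the cancer cell line, measured in a cell viability assay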
Description: SANGER: Inhibition of human NCI-H1304 cell growth in a cell viability assay.

EW-16 = type: functional, cell-based;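 further: growth inhibition of human EW-16 cells, read out as cell viability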
Description: SANGER: Inhibition of human EW-16 cell growth in a cell viability assay.

SF-268 = type: functional, cell-based;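 further: growth inhibition of SF-268 cells determined with a cell viability assay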
Description: SANGER: Inhibition of human SF268 cell growth in a cell viability assay.

MeWo = type: functional, cell-based;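 further: growth inhibition of MeWo cells, determined by a cell viability readout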
Description: SANGER: Inhibition of human Mewo cell growth in a cell viability assay.

KURAMOCHI = type: functional, cell-based;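 further: growth inhibition of KURAMOCHI cells, read out with a cell viability assay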
Description: SANGER: Inhibition of human KURAMOCHI cell growth in a cell viability assay.

MFH-ino = type: functional, cell-based;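 further: growth inhibition of human MFH-ino cells, read out by a cell viability assay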
Description: SANGER: Inhibition of human MFH-ino cell growth in a cell viability assay.

EW-13 = type: functional, cell-based;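 further: growth inhibition of EW-13 cells, read out with a cell viability assay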
Description: SANGER: Inhibition of human EW-13 cell growth in a cell viability assay.

GI-1 = type: functional, cell-based
Description: SANGER: Inhibition of human GI-1 cell growth in a cell viability assay.

COLO-741 = type: functional, cell-based
Description: SANGER: Inhibition of human COLO-741 cell growth in a cell viability assay.

TK-10 = type: functional, cell-based;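 further: growth inhibition of TK-10 cells, read out in a cell viability assay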
Description: SANGER: Inhibition of human TK10 cell growth in a cell viability assay.

C8166 = type: functional, cell-based
Description: SANGER: Inhibition of human C8166 cell growth in a cell viability assay.

OVCAR-5 = type: functional, cell-based
Description: SANGER: Inhibition of human OVCAR-5 cell growth in a cell viability assay.

OS-RC-2 = type: functional, cell-based
Description: SANGER: Inhibition of human OS-RC-2 cell growth in a cell viability assay.

TE-6 = type: functional, cell-based
Description: SANGER: Inhibition of human TE-6 cell growth in a cell viability assay.

SK-UT-1 = type: functional, cell-based
Description: SANGER: Inhibition of human SK-UT-1 cell growth in a cell viability assay.

CCNC(=O)c1noc(-c2cc(C(C)C)c(O)cc2O)c1-c1ccc(CN2CCOCC2)cc1 [LUMINESPIB]
IC50 (NCI-H446): > 256 nM | IC50 (AGS): 10.6 nM | IC50 (RS4-11): 33.8 nM | IC50 (EW-3): 175 nM | IC50 (MKN-1): 49.3 nM | IC50 (ATN-1): > 256 nM | IC50 (LU-139): > 256 nM | IC50 (FTC-133): > 256 nM | IC50 (A498): > 256 nM | IC50 (NB5): 36.1 nM | IC50 (EW-24): > 256 nM | IC50 (SK-OV-3): 6.3 nM | IC50 (MN-60): 242 nM | IC50 (SNU-5): > 256 nM | IC50 (ML-2): 36.7 nM | IC50 (DU-4475): 21.5 nM | IC50 (BFTC-909): 31.3 nM | IC50 (KYSE-150 cell line): 36.1 nM | IC50 (MPP-89): 97.2 nM | IC50 (SW 954): 10.7 nM | IC50 (no-10): 30.2 nM | IC50 (HEL): 38.9 nM | IC50 (ETK-1): 28.1 nM | IC50 (no-11): 30.5 nM | IC50 (BB49-HNC): 10.8 nM | IC50 (ES6): 12.6 nM | IC50 (COLO-824): 110 nM | IC50 (LB373-MEL-D): > 256 nM | IC50 (BT-474): 70.6 nM | IC50 (CCRF-CEM): 23.3 nM | IC50 (EB-3): 224 nM | IC50 (ES4): 15 nM | IC50 (KE-37): 56.8 nM | IC50 (NCI-H1299): 11.5 nM | IC50 (OMC-1): 17.5 nM | IC50 (MZ1-PC): 26.4 nM | IC50 (HCE-T): 28.6 nM | IC50 (LS-123): 24.4 nM | IC50 (VA-ES-BJ): 42.9 nM | IC50 (SK-MEL-1): > 256 nM | IC50 (OCI-AML2): 12.8 nM | IC50 (EW-11): 75.4 nM | IC50 (HT1197): 16.8 nM | IC50 (C2BBe1): 199 nM | IC50 (LNCaP-Clone-FGC): 81.7 nM | IC50 (LS-513): 74.6 nM | IC50 (NOMO-1): 71.7 nM | IC50 (NCI-H1648): 15 nM | IC50 (DMS-79): > 256 nM | IC50 (MIA PaCa-2): 15.1 nM | IC50 (EC-GI-10): > 256 nM | IC50 (NCI-H1304): 82.7 nM | IC50 (EW-16): 7.49 nM | IC50 (SF-268): 34 nM | IC50 (MeWo): > 256 nM | IC50 (KURAMOCHI): 61.9 nM | IC50 (MFH-ino): 12.9 nM | IC50 (EW-13): 5.18 nM | IC50 (GI-1): 148 nM | IC50 (COLO-741): 55.3 nM | IC50 (TK-10): 13.8 nM | IC50 (C8166): 11.3 nM | IC50 (OVCAR-5): 18.1 nM | IC50 (OS-RC-2): 34 nM | IC50 (TE-6): 246 nM | IC50 (SK-UT-1): 32.2 nM

CO[C@@]12[C@H](COC(N)=O)C3=C(C(=O)C(C)=C(N)C3=O)N1C[C@@H]1N[C@@H]12 [MITOMYCIN]
IC50 (NCI-H446): 12400 nM | IC50 (AGS): 106 nM | IC50 (RS4-11): 34.9 nM | IC50 (EW-3): 61.9 nM | IC50 (MKN-1): 541 nM | IC50 (ATN-1): 17.4 nM | IC50 (LU-139): 1220 nM | IC50 (FTC-133): 517 nM | IC50 (A498): > 16000 nM | IC50 (NB5): 358 nM | IC50 (EW-24): 783 nM | IC50 (SK-OV-3): 143 nM | IC50 (MN-60): 1260 nM | IC50 (SNU-5): 141 nM | IC50 (ML-2): < 62.5 nM | IC50 (DU-4475): 47.5 nM | IC50 (BFTC-909): 85.3 nM | IC50 (KYSE-150 cell line): 34.1 nM | IC50 (MPP-89): 991 nM | IC50 (SW 954): 44.9 nM | IC50 (no-10): 300 nM | IC50 (HEL): 35.8 nM | IC50 (ETK-1): 108 nM | IC50 (no-11): 7740 nM | IC50 (BB49-HNC): 353 nM | IC50 (ES6): 746 nM | IC50 (COLO-824): 1440 nM | IC50 (LB373-MEL-D): 430 nM | IC50 (BT-474): 2620 nM | IC50 (CCRF-CEM): 61.7 nM | IC50 (EB-3): 3200 nM | IC50 (ES4): < 62.5 nM | IC50 (KE-37): < 62.5 nM | IC50 (NCI-H1299): 218 nM | IC50 (OMC-1): 390 nM | IC50 (MZ1-PC): 450 nM | IC50 (HCE-T): 372 nM | IC50 (LS-123): 1720 nM | IC50 (VA-ES-BJ): 52.2 nM | IC50 (SK-MEL-1): 1890 nM | IC50 (OCI-AML2): < 62.5 nM | IC50 (EW-11): 513 nM | IC50 (HT1197): 2020 nM | IC50 (C2BBe1): 9280 nM | IC50 (LNCaP-Clone-FGC): 450 nM | IC50 (LS-513): 1180 nM | IC50 (NOMO-1): 151 nM | IC50 (NCI-H1648): 523 nM | IC50 (DMS-79): 2470 nM | IC50 (MIA PaCa-2): 275 nM | IC50 (EC-GI-10): 14900 nM | IC50 (NCI-H1304): 375 nM | IC50 (EW-16): < 62.5 nM | IC50 (SF-268): 171 nM | IC50 (MeWo): 9550 nM | IC50 (KURAMOCHI): 523 nM | IC50 (MFH-ino): 70.6 nM | IC50 (EW-13): 52.5 nM | IC50 (GI-1): 35.2 nM | IC50 (COLO-741): 2200 nM | IC50 (TK-10): 528 nM | IC50 (C8166): 932 nM | IC50 (OVCAR-5): 487 nM | IC50 (OS-RC-2): 264 nM | IC50 (TE-6): 894 nM | IC50 (SK-UT-1): 82.8 nM
